Measured values published in patent publication EP3696177A1, “HETEROCYCLIC COMPOUNDS FOR THE CONTROL OF INVERTEBRATE PESTS” (BASF SE, priority 2019, dated 2020).

How the values were obtained:
Assay type in all cases: in vivo
[1] = system: Aedes aegypti; experiment: whole plant or invertebrate; conditions: 48 h, A. aegypti larvae, incubated 2 days, read-out: mortality in comparison with untreated controls (larval mortality)
Procedure: For evaluating control of yellow fever mosquito (Aedes aegypti) the test unit consisted of 96-well-microtiter plates containing 200µl of tap water per well and 5-15 freshly hatched A. aegypti larvae.
The active compounds were formulated using a solution containing 75% (v/v) water and 25% (v/v) DMSO. Different concentrations of formulated compounds or mixtures were sprayed onto the insect diet at 2.5µl, using a custom built micro atomizer, at two replications.
After application, microtiter plates were incubated at 28 + 1°C, 80 + 5 % RH for 2 days. Larval mortality was then visually assessed.

[2] = system: dichromothrips corbetti; experiment: Orchid thrips floral-immersion test; conditions: 72 h, read-out: mortality in comparison with untreated controls
Procedure: Dichromothrips corbetti adults used for bioassay are obtained from a colony maintained continu-ously under laboratory conditions. For testing purposes, the test compound is diluted in a 1:1 mix-ture of acetone:water (vol:vol), plus Kinetic at a rate of 0.01% v/v.
Thrips potency of each compound is evaluated by using a floral-immersion technique. Each orchid petal is dipped into treatment solution and allowed to dry in Petri dishes. Treated petals are placed into individual re-sealable plastic along with about 20 adult thrips. All test arenas are held under dark condition and a temperature of about 28°C for duration of the assay. The percent mor-tality is recorded 72 hours after treatment.

[3] = system: Anthonomus grandis; experiment: Boll weevil (Anthonomus grandis) insect diet microtiter plate test; conditions: 120 h, read-out: mortality in comparison with untreated controls (egg and larval mortality)
Procedure: For evaluating control of boll weevil (Anthonomus grandis) the test unit consisted of 96-well-microtiter plates containing an insect diet and 5-10 A. grandis eggs.
The compounds were formulated using a solution containing 75% v/v water and 25% v/v DMSO. Different concentrations of formulated compounds were sprayed onto the insect diet at 5 µl, using a custom built micro atomizer, at two replications.
After application, microtiter plates were incubated at about 25 + 1°C and about 75 + 5 % relative humidity for 5 days. Egg and larval mortality was then visually assessed.

[4] = system: Aphis craccivora; experiment: Cowpea aphid (Aphis craccivora) spray test on potted cowpea plants; conditions: aphids of various stages, after 72 hours, read-out: mortality in comparison with untreated controls
Procedure: The active compound is dissolved at the desired concentration in a mixture of 1:1 (vol: vol) distilled water: acetone. Surfactant (Kinetic) is added at a rate of 0.01% (vol/vol). The test solution is prepared at the day of use.
Potted cowpea plants are colonized with approximately 30 - 50 aphids of various stages by man-ually transferring aphid-infested leaf clippings 24 hours before application. Plants are sprayed with the test solutions using a DeVilbiss® hand atomizer at 20- 30 psi (≈ 1.38 to 2.07 bar) after the pest population has been checked. Treated plants are maintained on light carts at about 25- 26°C. Estimate percent mortality is assessed after 72 hours.

[5] = system: Caenorhabditis elegans; experiment: Caenorhabditis elegans liquid diet microtiter plate test; conditions: 96 h, read-out: mortality in comparison with untreated controls (nematode motility (mortality))
Procedure: For evaluating control of Caenorhabditis elegans through contact or systemic means the test unit consisted of 96-well-microtiter plates containing a liquid diet.
The compounds or mixtures were formulated using a solution containing 75% water and 25% DMSO. Different concentrations of formulated compounds were sprayed into the microtiter plate wells at 5µl per well, using a custom built micro atomizer, at two replications. Mixed instar 60-100 C. elegans were transferred into the micro-titer plate wells. After application, the nematodes were incubated at 18 + 1°C, 70 + 5 % RH for 4 days. Nematode motility (mortality) was then visually assessed.

[6] = system: Heliothis virescens; experiment: Tobacco budworm (Heliothis virescens) insect diet microtiter plate test; conditions: 120 h, read-out: mortality in comparison with untreated controls (egg and larval mortality)
Procedure: For evaluating control of tobacco budworm (Heliothis virescens) the test unit consisted of 96-well-microtiter plates containing an insect diet and 15-25 H. virescens eggs.
The compounds were formulated using a solution containing 75% v/v water and 25% v/v DMSO. Different concentrations of formulated compounds were sprayed onto the insect diet at 10 µl, us-ing a custom built micro atomizer, at two replications.
After application, microtiter plates were incubated at about 28 + 1°C and about 80 + 5 % relative humidity for 5 days. Egg and larval mortality was then visually assessed.

[7] = system: Megoura viciae; experiment: Vetch aphid (Megoura viciae) broad bean leaf disk test; conditions: foliar, 120 h, read-out: mortality in comparison with untreated controls
Procedure: For evaluating control of vetch aphid (Megoura viciae) through contact or systemic means the test unit consisted of 24-well-microtiter plates containing broad bean leaf disks.
The compounds were formulated using a solution containing 75% v/v water and 25% v/v DMSO. Different concentrations of formulated compounds were sprayed onto the leaf disks at 2.5 µl, us-ing a custom built micro atomizer, at two replications.
After application, the leaf disks were air-dried and 5 - 8 adult aphids placed on the leaf disks in-side the microtiter plate wells. The aphids were then allowed to suck on the treated leaf disks and incubated at about 23 + 1°C and about 50 + 5 % relative humidity for 5 days. Aphid mortality and fecundity was then visually assessed.

[8] = system: Myzus persicae; experiment: Green peach aphid (Myzus persicae) artificial diet/membrane systemic test; conditions: 72 h, read-out: mortality in comparison with untreated controls
Excerpt: For evaluating control of green peach aphid (Myzus persicae) through systemic means the test unit consisted of 96-well-microtiter plates containing liquid artificial diet under an artificial membrane.
The compounds were formulated using a solution containing 75% v/v water and 25% v/v DMSO. Different concentrations of formulated compounds were pipetted into the aphid diet, using a cus-tom built pipetter, at two replications.
After application, 5 - 8 adult aphids were placed on the artificial membrane inside the microtiter plate wells. The aphids were then allowed to suck on the treated aphid diet and incubated at about 23 + 1°C and about 50 + 5 % relative humidity for 3 days. Aphid mortality and fecundity was then visually assessed.

[9] = system: Nephotettix virescens; experiment: Rice green leafhopper (Nephotettix virescens) spray test on rice seedlings; conditions: adults, after 72 hours, read-out: mortality in comparison with untreated controls
Procedure: Four to five-week old rice seedlings with cut upper leaf portion are cleaned and washed 24 hours before spraying. The active compounds are formulated in 1:1 acetone:water (vol:vol), and 0.01% vol/vol surfactant (Kinetic) is added. Potted rice seedlings are sprayed with 5-6 ml test solution, air dried, covered with Mylar cages and inoculated with 10 adults. Treated rice plants are kept at about 28-29°C and relative humidity of about 50-60%. Percent mortality is recorded after 72 hours.

[10] = system: Nezara viridula; experiment: Green soldier stink bug (Nezara viridula) soybean pod spray test; conditions: 120 h, late 3rd instar N. viridula, after 5 days, read-out: mortality in comparison with untreated controls
Procedure: The active compound is dissolved at the desired concentration in a mixture of 1:1 (vol:vol) distilled water: aceteone. Surfactant (Kinetic) is added at a rate of 0.01% (vol/vol).The test solution is prepared at the day of use.
Soybean pods are placed in 90 x 50 mm glass Petri dishes lined with moistened filter paper and inoculated with ten late 3rd instar N. viridula. Using a hand atomizer, an approximately 2 ml solution is sprayed into each Petri dish. Treated set-up is kept at about 25-26°C and relative humidity of about 65-70%. Percent mortality is recorded after 5 days.

[11] = system: Plutella xylostella; experiment: Diamond back moth (Plutella xylostella) cabbage leaf disc dip test; conditions: foliar, 72 h, read-out: mortality in comparison with untreated controls
Procedure: The active compound is dissolved at the desired concentration in a mixture of 1:1 (vol:vol) distilled water: acetone. Surfactant (Kinetic) is added at a rate of 0.01% (vol/vol). The test solution is pre-pared at the day of use.
Cabbage leaf discs (60mm in diameter) are dipped in test solution and air-dried. Treated leaves are placed in petri dishes lined with moistened filter paper and inoculated with ten 3rd instar larvae. Mortality is recorded 72 hours after treatment. Feeding damage is also recorded using a scale of 0-100%.

[12] = system: Tetranychus kanzawai; experiment: Red spider mite (Tetranychus kanzawai) spray test on cowpea beans; conditions: topical, 72 h, read-out: mortality in comparison with untreated controls
Procedure: The active compound is dissolved at the desired concentration in a mixture of 1:1 (vol:vol) distilled water: acetone. Add surfactant (Kinetic) is added at a rate of 0.01% (vol/vol). The test solution is prepared at the day of use.
Potted cowpea beans of 4-5 days of age are cleaned with tap water and sprayed with 1-2 ml of the test solution using air driven DeVilbiss® hand atomizer at 20- 30 psi (≈ 1,38 to 2,07 bar). The treated plants are allowed to air dry and afterwards inoculated with 30 or more mites by clipping a cassava leaf section from rearing population. Treated plants are placed inside a holding room at about 25-26°C and about 65-70% relative humidity. Estimate percent mortality is assessed 72 hours after treatment.

CCN1C(=O)SC(NC(=O)c2ccc(C3=NCC(c4cc(Cl)c(F)c(Cl)c4)(C(F)(F)F)C3)c3c2CCC3)C1=O (stereo not drawn) [Compound I-2-1]
> 75%: mortality at 2500 ppm [1] | mortality at 300 ppm [2] | mortality at 2500 ppm [3] | mortality at 300 ppm [4] | mortality at 2500 ppm [5] | mortality at 2500 ppm [6] | mortality at 2500 ppm [7] | mortality at 2500 ppm [8] | mortality at 300 ppm [9] | mortality at 300 ppm [10] | mortality at 300 ppm [11] | mortality at 300 ppm [12]

CN1C(=O)SC(NC(=O)c2ccc(C3=NOC(c4cc(Cl)cc(Cl)c4)(C(F)(F)F)C3)cc2Cl)C1=O (stereo not drawn) [Compound I-1-1]
> 75%: mortality at 2500 ppm [1] | mortality at 300 ppm [2] | mortality at 2500 ppm [3] | mortality at 300 ppm [4] | mortality at 2500 ppm [5] | mortality at 2500 ppm [6] | mortality at 2500 ppm [7] | mortality at 2500 ppm [8] | mortality at 300 ppm [9] | mortality at 300 ppm [10] | mortality at 300 ppm [11] | mortality at 300 ppm [12]

CN1COC(CNC(=O)c2ccc(C3=NOC(c4cc(Cl)cc(C(F)(F)F)c4)(C(F)(F)F)C3)c3c2CCC3)C1=O (stereo not drawn) [Compound I-3-3]
> 75%: mortality at 2500 ppm [1] | mortality at 300 ppm [2] | mortality at 2500 ppm [3] | mortality at 300 ppm [4] | mortality at 2500 ppm [6] | mortality at 2500 ppm [7] | mortality at 2500 ppm [8] | mortality at 300 ppm [9] | mortality at 300 ppm [10] | mortality at 300 ppm [11] | mortality at 300 ppm [12]

CC(C)N1C(=O)SC(NC(=O)c2ccc(C3=NOC(c4cc(Cl)cc(Cl)c4)(C(F)(F)F)C3)cc2Cl)C1=O (stereo not drawn) [Compound I-1-3]
> 75%: mortality at 2500 ppm [1] | mortality at 300 ppm [2] | mortality at 2500 ppm [3] | mortality at 2500 ppm [5] | mortality at 2500 ppm [6] | mortality at 2500 ppm [7] | mortality at 2500 ppm [8] | mortality at 300 ppm [10] | mortality at 300 ppm [11] | mortality at 300 ppm [12]

Cc1cc(C2=NOC(c3cc(Cl)cc(Cl)c3)(C(F)(F)F)C2)ccc1C(=O)NCC1OCN(C)C1=O (stereo not drawn) [Compound I-3-11]
> 75%: mortality at 2500 ppm [1] | mortality at 300 ppm [2] | mortality at 2500 ppm [3] | mortality at 300 ppm [4] | mortality at 2500 ppm [5] | mortality at 2500 ppm [6] | mortality at 2500 ppm [7] | mortality at 2500 ppm [8] | mortality at 300 ppm [11] | mortality at 300 ppm [12]

Cc1cc(C2=NOC(c3cc(Cl)cc(Cl)c3)(C(F)(F)F)C2)ccc1C(=O)NC1SC(=O)N(C)C1=O (stereo not drawn) [Compound I-1-4, 4-[5-(3,5-dichlorophenyl)-5-(trifluoromethyl)-4H-isoxazol-3-yl]-2-methyl-N-(3-methyl-2,4-dioxo-thiazolidin-5-yl)benzamide]
> 75%: mortality at 2500 ppm [1] | mortality at 300 ppm [2] | mortality at 2500 ppm [3] | mortality at 2500 ppm [6] | mortality at 2500 ppm [7] | mortality at 2500 ppm [8] | mortality at 300 ppm [9] | mortality at 300 ppm [10] | mortality at 300 ppm [11] | mortality at 300 ppm [12]

CCN1C(=O)SC(NC(=O)c2ccc(C3=NOC(c4cc(Cl)cc(Cl)c4)(C(F)(F)F)C3)cc2C)C1=O (stereo not drawn) [Compound I-1-5]
> 75%: mortality at 2500 ppm [1] | mortality at 300 ppm [2] | mortality at 2500 ppm [3] | mortality at 300 ppm [4] | mortality at 2500 ppm [6] | mortality at 2500 ppm [7] | mortality at 2500 ppm [8] | mortality at 300 ppm [9] | mortality at 300 ppm [10] | mortality at 300 ppm [11] | mortality at 300 ppm [12]

CN1C(=O)SC(NC(=O)c2ccc(C3=NOC(c4cc(Cl)cc(C(F)(F)F)c4)(C(F)(F)F)C3)c3c2CCC3)C1=O (stereo not drawn) [Compound I-1-8]
> 75%: mortality at 2500 ppm [1] | mortality at 300 ppm [2] | mortality at 2500 ppm [3] | mortality at 2500 ppm [6] | mortality at 2500 ppm [7] | mortality at 2500 ppm [8] | mortality at 300 ppm [9] | mortality at 300 ppm [10] | mortality at 300 ppm [11] | mortality at 300 ppm [12]

Cc1cc(C2=NOC(c3cc(Cl)cc(Cl)c3)(C(F)(F)F)C2)ccc1C(=O)NC1SC(=O)N(C(C)C)C1=O (stereo not drawn) [Compound I-1-6]
> 75%: mortality at 2500 ppm [1] | mortality at 300 ppm [2] | mortality at 2500 ppm [3] | mortality at 300 ppm [4] | mortality at 2500 ppm [6] | mortality at 2500 ppm [7] | mortality at 2500 ppm [8] | mortality at 300 ppm [9] | mortality at 300 ppm [10] | mortality at 300 ppm [11]
